In one data set the test system is Sclerotinia sclerotiorum. The data set can be described thus: In vitro antifungal assay, 24-well plate with mycelial plugs (MIC). As to conditions: mycelial plugs in 250 μL SFM. The format is cell-based. As for the experimental part: (§1) B. cinerea strain T4 was cultured in V8 medium for 3 weeks at 25°C. Fungal spores were collected by flooding the fungal growth plates with water and scraped using a sterile spreader. The spore suspension was filtered through two layers of Miracloth, followed by centrifugation at 12,000 g for 2 minutes (min) and subsequently washed twice with sterile water. Lastly, fungal spores were resuspended in Synthetic Fungal Media (SFM). The spore suspension was adjusted to the desired spore density of about 10^5 spores/mL using a hemocytometer. Fusarium virguliforme (F. virguliforme) was grown and maintained regularly in potato dextrose agar (PDA) (Difco Laboratories) medium. Two weeks old F. virguliforme plates were used to collect spores as described above for B. cinerea followed by centrifugation and washing steps. Spores were counted using a hemocytometer and adjusted to the final concentration of 10^5 spores/mL in 2X SFM media. Sclerotinia sclerotiorum obtained from the field of pennycress in Illinois was grown on PDA medium at room temperature.
(§2) The antifungal activity of NCR13 against fungal pathogens was determined using the resazurin cell viability assay, as described previously. […] The in vitro antifungal activity of NCR13_PFVs against S. sclerotiorum was determined using a 24-well plate assay as previously described. […]

The subject of the next data set is trypsin. As to conditions: 20-fold less (in mass) trypsin, room temperature, 1 h, read-out mass spectrometry.
The test system of data set [1] is B. cinerea. Format: in vivo, Botrytis cinerea on tomato (Solanum lycopersicum). As to conditions: 3 μM peptide sprayed on pre-inoculated four-week-old tomato plants; 5 leaves per plant, 4 plants. As to the method: To test the curative antifungal activity of peptides against B. cinerea, 4-week-old pepper and tomato plants were used. Plants were first sprayed with 1 mL of B. cinerea spores (about 5 × 10^4) suspended in SFM. After 8 h of B. cinerea challenge, 2 mL of NCR13_PFV1 or NCR13_PFV2 (3.0 and 1.5 μM) were sprayed per plant. Control plants were sprayed with 2 mL of water. All plants were placed in a high humid environment for 72 h. Plants were imaged at 72 h after infection in white light and high-resolution fluorescence images were taken using CropReporter (PhenoVation). The quantification of plant health was carried out using the calculated Fv/Fm (maximum quantum yield of photosystem II) images of CropReporter showing the efficiency of photosynthesis in false colors.
For the curative assay using pepper and tomato plants, pictures of whole plants and detached leaves were taken as described above. […] Four plants were used per treatment and for each plant the disease was assessed per leaf. Besides disease severity (DS), the inhibition of disease by treatment was also evaluated. […]

The test system of data set [2] is B. cinerea. The format is cell-based, Botrytis cinerea. The settings on record: B. cinerea; for Minimal Inhibitory Concentration (MIC): resazurin assay in SFM, ~10^5 spores/mL, resazurin added after 48 h, three biological replicates. As for the experimental part:
as §1
The antifungal activity of NCR13 against fungal pathogens was determined using the resazurin cell viability assay, as described previously. Briefly, 45 μL of each peptide dilution (0, 0.09, 0.1875, 0.375, 0.75, 1.5, 3, and 6 μM) was added to each well of the microtiter plate containing 45 μL (~10^5 spores/mL) of spore suspension. Three biological replicates were used for each treatment and the experiments were repeated three times. Resazurin at 0.1% (w/v) was added to each well after incubation for 48 h. Images were taken at ~24 h. The Minimum Inhibitory Concentration (MIC) for each peptide denotes the lowest concentration at which the peptide halts the growth of fungus evident through a lack of color change from blue to […]. The in vitro antifungal activity of NCR13_PFVs against S. sclerotiorum was determined using a 24-well plate assay as previously described. Mycelial plugs (1 mm in diameter) cut from the growing edge of the two day-old actively growing colony were transferred from PDA media to a series of wells containing 250 μL of SFM.

The subject of a further data set is Fusarium virguliforme. The data set can be described thus: In vitro antifungal assay, resazurin cell viability (MIC). The format is cell-based. As to conditions: resazurin assay in SFM, ~10^5 spores/mL. As for the experimental part:
as §1, §2

Bridge positions count the residues as written; N and C are the ends. Peptide text beside a SMILES is read from it.

As to `CC[C@H](C)[C@@H]1NC(=O)[C@@H]2CSSC[C@H](NC(=O)[C@@H]3CCCN3C(=O)[C@H](CCCCN)NC(=O)[C@@H](NC(=O)[C@H](C)N)[C@@H](C)O)C(=O)N[C@@H](CCC(N)=O)C(=O)N[C@@H](CO)C(=O)N[C@@H](CC(=O)O)C(=O)N[C@@H](CCCCN)C(=O)N[C@@H](CC(=O)O)C(=O)N[C@H]3CSSC[C@H](NC(=O)[C@H](Cc4ccccc4)NC(=O)CNC(=O)[C@H](CC(N)=O)NC1=O)C(=O)N[C@@H](CCCCN)C(=O)N[C@H](C(=O)N[C@H](C(=O)N[C@@H](CCCNC(=N)N)C(=O)O)C(C)C)CSSC[C@H](NC(=O)[C@H](C)NC(=O)[C@H](Cc1ccccc1)NC(=O)[C@H](CCCCN)NC(=O)[C@H](CCCCN)NC3=O)C(=O)N[C@@H](CCCNC(=N)N)C(=O)N[C@@H](CCCCN)C(=O)N1CCC[C@H]1C(=O)N[C@@H](CCCCN)C(=O)N[C@@H](C(C)C)C(=O)N1CCC[C@H]1C(=O)N[C@@H](CCCCN)C(=O)N2` [NCR13_PFV1] (H-ATKPCQSDKDCKKFACRKPKVPKCINGFCKCVR-OH; disulfide 5-24, 11-29, 16-31), the entries for the “Minimal Inhibitory Concentration (MIC)” value in the data set with Sclerotinia sclerotiorum, with B. cinerea [2] and in the data set on Fusarium virguliforme were 6.0 µM, 0.09 µM and 0.09 µM, respectively. Besides, the digestion by trypsin result with trypsin is on record as “could not be digested by trypsin”. Besides, in the data set on B. cinerea [1], the “inhibition of gray mold disease, tomato” value came to 90%. The “MIC in SFM+100 mM NaCl” value with B. cinerea [2] (synthetic fungal medium plus 100 mM NaCl) was over 12 µM.

For the compound `CC[C@H](C)[C@@H]1NC(=O)[C@@H]2CSSC[C@H](NC(=O)[C@H](Cc3ccccc3)NC(=O)CNC(=O)[C@H](CC(N)=O)NC1=O)C(=O)N[C@@H](CCCCN)C(=O)N[C@H](C(=O)N[C@H](C(=O)N[C@@H](CCCNC(=N)N)C(=O)O)C(C)C)CSSC[C@H](NC(=O)[C@H](C)NC(=O)[C@H](Cc1ccccc1)NC(=O)[C@H](CCCCN)NC(=O)[C@H](CCCCN)NC(=O)[C@@H]1CSSC[C@H](NC(=O)[C@@H]3CCCN3C(=O)[C@H](CCCCN)NC(=O)[C@@H](NC(=O)[C@H](C)N)[C@@H](C)O)C(=O)N[C@@H](CCC(N)=O)C(=O)N[C@@H](CO)C(=O)N[C@@H](CC(=O)O)C(=O)N[C@@H](CCCCN)C(=O)N[C@@H](CC(=O)O)C(=O)N1)C(=O)N[C@@H](CCCNC(=N)N)C(=O)N[C@@H](CCCCN)C(=O)N1CCC[C@H]1C(=O)N[C@@H](CCCCN)C(=O)N[C@@H](C(C)C)C(=O)N1CCC[C@H]1C(=O)N[C@@H](CCCCN)C(=O)N2` [NCR13_PFV2] (H-ATKPCQSDKDCKKFACRKPKVPKCINGFCKCVR-OH; disulfide 5-11, 16-31, 24-29), the “Minimal Inhibitory Concentration (MIC)” value was 24 µM in the data set with Sclerotinia sclerotiorum, 1.5 µM with B. cinerea [2] and 1.5 µM with Fusarium virguliforme. Further, the “inhibition of gray mold disease, tomato” value in the data set on B. cinerea [1] is given as 40%.

Values taken from PMC11637438, “Chickpea NCR13 disulfide cross-linking variants exhibit profound differences in antifungal activity and modes of action” (PLOS Pathogens, 2024).
